Assay results from patent US20170367996A1, “Use Of Xanthophyll Carotenoids To Improve Visual Performance And Neural Efficiency” (University of Georgia Research Foundation, Inc., priority 2011, published 2017).

Legend:
Type in all cases: in vivo, human
[1] = system: college baseball players; assay: Coincidence anticipation timing (CAT); settings: 20 mg/Z/day for 3-months; at the highest frequency
Experimental: (§1) Subjects: Seven college baseball players (M=20.3±0.58 years), supplemented with 20 mg/Z/day for 3-months, participated in this study. The visual function parameters MPOD, disability glare, photostress recovery time, and contrast enhancement were determined. The neural efficiency parameters Fixed Reaction Time (FRT); Variable Reaction Time (VRT); and Coincidence Anticipation Timing (CAT) were determined.
• Task: button press to indicate when a light bar (traveling along 120 LED linear track) reached a specified point. • Velocity randomly varied between 5, 10, 15, and 20 MPH (15 trials for each speed, randomly presented; inter-trial intervals randomly varied between 1000-3000 ms).

[2] = system: college baseball players; assay: Photostress recovery time (PR); settings: 20 mg/Z/day for 3-months; supplemented subjects
Experimental: as §1
(§2) Stimuli presented in three-channel Maxwellian-view optical system (1 kW xenon-arc light source).
• 570 nm target (100% contrast; 5 cpd). • 5 second exposure to bleaching photostressor (5° diameter disk; xenon-white light of log 2.5 μW/cm2 intensity). • Threshold: time to recover visibility of target.

[3] = system: college baseball players; assay: Fixed and variable position reaction time (FRT/VRT); settings: 20 mg/Z/day for 3-months
Experimental: as §1
• Task: button press in response to LED repeatedly presented at same position (FRT) or random location (VFT) along the 120 LED linear track. • 60 trials; inter-trial intervals varied between 1000-3000 ms

[4] = system: college baseball players; assay: Glare disability (GL); settings: 20 mg/Z/day for 3-months
Experimental: as §1, §2
(§3) • 570 nm target (100% contrast, 5 cycles per degree—cpd); 10° inner, 12° outer diameter annulus comprised of broad-band xenon light (see FIG. 1 a). • Threshold: intensity of annulus required to completely veil target.

[5] = system: college baseball players; assay: Contrast enhancement (CE); settings: 20 mg/Z/day for 3-months
Experimental: as §1, §2
(§4) • 600 nm target (100% contrast grating, 5 cpd); 460 nm surround (see FIG. 1A(b)). • Threshold: intensity of background required to obscure edge between target and surround.

[6] = system: college baseball players; assay: Macular pigment optical density (MPOD) by customized heterochromatic flicker photometry, zeaxanthin supplementation study; settings: for MPOD (Example 2, preliminary data): 20 mg/d supplementation ongoing
Experimental: as §1
• Customized HFP [3]—Macular Metrics Corp., Providence, R.I.,

[7] = system: college baseball players; assay: Static and dynamic visual performance after zeaxanthin supplementation (Example 2); settings: 20 mg/d supplementation ongoing; preliminary data
Description: Baseball performance requires the ability to perceive and react to temporally varying stimuli under lighting conditions that are known to be most detrimental to visual function (i.e., short-wave light). Macular pigment (MP) lutein (L) and zeaxanthin (Z) in the retina—is known to improve performance under such conditions and may also improve neural efficiency. The purpose of this study was to assess static and dynamic visual performance in college baseball players in order to: • a) Define performance ability in athletes and non-athletes matched for age and MP (N=18); and, • b) Improve athletes' performance via supplementation.
as §2, §3, §4
• 570 nm target (100% contrast; 5 cpd). • 5 second exposure to bleaching photostressor (5° diameter disk; xenon-white light of log 2.5 μW/cm2 intensity). • Threshold: time to recover visibility of target. […]

Compound: CC1=C(/C=C/C(C)=C/C=C/C(C)=C/C=C/C=C(C)/C=C/C=C(C)/C=C/C2=C(C)C[C@@H](O)CC2(C)C)C(C)(C)C[C@H](O)C1 [Zeaxanthin, zeaxanthin]
- CAT accuracy [1]: improved
- Photostress recovery time [2]: decreased
- FRT [3]: improved
- VRT [3]: improved
- Glare (disability glare) [4]: Early improvements
- Contrast enhancement [5]: Early improvements
- MPOD in supplemented subjects ([6]; 20 mg/Z/day for 3-months, three subjects completed): increased
- MPOD (Example 2, preliminary data) [6]: increases
- MPOD (Example 2, preliminary data) ([6]; listed as zeaxanthin): Increases
- 12-week MPOD ([6]; one subject, baseline MPOD 0.7 at 30-min of eccentricity, 20 mg/d, 12 weeks): 0.77
- Dynamic visual performance [7]: improvement
- Static visual performance [7]: improvement
